Key:
Type in all cases: in vivo
corn (Zea mays) = test: Test A pre-/postemergence: corn
Method in brief: (§1)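 Each species received preemergence soil-directed spraying and, at the same time, postemergence treatment of seedlings 2–10 cm tall. Formulation: non-phytotoxic solvent mixture including surfactant. Response assessed visually about ten days on, relative to untreated controls, 0–100 scale.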

[1] = system: barnyardgrass (Echinochloa crus-galli); test: Test A pre-/postemergence: barnyardgrass
Method in brief: as §1

[2] = system: morningglory (Ipomoea spp.); test: Test A pre-/postemergence: morningglory
Method in brief: as §1

[3] = system: barnyardgrass (Echinochloa crus-galli); test: Test B flooded paddy: barnyardgrass; conditions: Flood, applied to paddy water at 2-leaf stage, visually evaluated after 13 to 15 days
Method in brief: (§2)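 Paddy-water application: seedlings at 2-leaf stage, flood depth 3 cm maintained for the test duration. Evaluation after 13–15 days in the greenhouse by eye relative to controls; 0–100 scale.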

[4] = system: velvetleaf (Abutilon theophrasti); test: Test A pre-/postemergence: velvetleaf
Method in brief: as §1

[5] = system: crabgrass, large (large crabgrass, Digitaria sanguinalis); test: Test A pre-/postemergence: crabgrass, large
Method in brief: as §1

[6] = system: ducksalad (Heteranthera limosa); test: Test B flooded paddy: ducksalad; conditions: Flood, applied to paddy water at 2-leaf stage, visually evaluated after 13 to 15 days
Method in brief: as §2

[7] = system: sedge, umbrella (small-flower umbrella sedge Cyperus difformis); test: Test B flooded paddy: sedge, umbrella; conditions: Flood, applied to paddy water at 2-leaf stage, visually evaluated after 13 to 15 days
Method in brief: as §2

[8] = system: wheat (Triticum aestivum); test: Test A pre-/postemergence: wheat
Method in brief: as §1

[9] = system: pigweed (Amaranthus retroflexus); test: Test A pre-/postemergence: pigweed
Method in brief: as §1

[10] = system: foxtail, giant (giant foxtail, Setaria faberii); test: Test A pre-/postemergence: foxtail, giant
Method in brief: as §1

rice (Oryza sativa) = test: Test B flooded paddy: rice; conditions: Flood, applied to paddy water at 2-leaf stage, visually evaluated after 13 to 15 days
Method in brief: as §2

[11] = Postemergence, 125 g ai/ha, 0 to 100 scale, 0 is no effect, 100 is complete control
[12] = Postemergence, 500 g ai/ha, 0 to 100 scale, 0 is no effect, 100 is complete control
[13] = Preemergence, 125 g ai/ha, 0 to 100 scale where 0 is no effect and 100 is complete control
[14] = Preemergence, 500 g ai/ha, 0 to 100 scale (0 no effect, 100 complete control)

Compound	Plant response rating, Corn (corn (Zea mays); [11])	Corn plant response rating (corn (Zea mays); [12])	Plant response rating, Corn (corn (Zea mays); [13])	Plant response rating, Corn (corn (Zea mays); [14])	Plant response rating, Barnyardgrass [1, 11]	Barnyardgrass plant response rating [1, 12]	Plant response rating, Barnyardgrass [1, 13]	Plant response rating, Barnyardgrass [1, 14]	Plant response rating, Morningglory [2, 11]	Morningglory plant response rating [2, 12]	Plant response rating, Velvetleaf [4, 11]	Velvetleaf plant response rating [4, 12]	Plant response rating, Velvetleaf [4, 13]	Plant response rating, Velvetleaf [4, 14]	Plant response rating, Crabgrass, Large [5, 11]	Crabgrass, Large plant response rating [5, 12]	Plant response rating, Crabgrass, Large [5, 13]	Plant response rating, Crabgrass, Large [5, 14]	Plant response rating, Wheat [8, 11]	Wheat plant response rating [8, 12]	also measured
COc1nn(-c2ccc(F)cc2F)nc1Cc1ccnc(C(F)(F)F)c1 [Compound 165]	20	30	0	10	40	90	30	100	60	80	40	70	0	10	70	90	100	100	20	30	Plant response rating, Barnyardgrass (0 to 100 scale, 0 is no effect, 100 is complete control) ([3]; 125 g ai/ha): 10; Plant response rating, Ducksalad (0 to 100 scale, 0 is no effect, 100 is complete control) ([6]; 125 g ai/ha): 40; Plant response rating, Sedge, Umbrella (0 to 100 scale, 0 is no effect, 100 is complete control) ([7]; 125 g ai/ha): 70; Plant response rating, Wheat [8, 13]: 0; Plant response rating, Wheat [8, 14]: 0; Plant response rating, Pigweed [9, 11]: 100; Pigweed plant response rating [9, 12]: 100; Plant response rating, Pigweed [9, 13]: 100; Plant response rating, Pigweed [9, 14]: 100; Plant response rating, Foxtail, Giant [10, 11]: 60; Foxtail, Giant plant response rating [10, 12]: 90; Plant response rating, Foxtail, Giant [10, 13]: 90; Plant response rating, Foxtail, Giant [10, 14]: 100; Plant response rating, Rice (0 to 100 scale, 0 is no effect, 100 is complete control) (rice (Oryza sativa); 125 g ai/ha): 20
Cc1nn(-c2ccc(C(F)(F)F)cn2)nc1C(=NO)c1cccc(C(F)(F)F)c1 [Compound 201]	10	20	0	0	0	10	0	0	10	50	20	40	0	0	20	30	0	20	0	10	Plant response rating, Morningglory [2, 13]: 0; Plant response rating, Morningglory [2, 14]: 0; Plant response rating, Barnyardgrass (0 to 100 scale, 0 is no effect, 100 is complete control) ([3]; 250 g ai/ha): 0; Plant response rating, Ducksalad (0 to 100 scale, 0 is no effect, 100 is complete control) ([6]; 250 g ai/ha): 0; Plant response rating, Sedge, Umbrella (0 to 100 scale, 0 is no effect, 100 is complete control) ([7]; 250 g ai/ha): 0; Plant response rating, Wheat [8, 13]: 0; Plant response rating, Wheat [8, 14]: 0; Plant response rating, Pigweed [9, 11]: 60; Pigweed plant response rating [9, 12]: 100; Plant response rating, Pigweed [9, 13]: 0; Plant response rating, Pigweed [9, 14]: 10; Plant response rating, Foxtail, Giant [10, 11]: 0; Foxtail, Giant plant response rating [10, 12]: 10; Plant response rating, Foxtail, Giant [10, 13]: 0; Plant response rating, Foxtail, Giant [10, 14]: 20; Plant response rating, Rice (0 to 100 scale, 0 is no effect, 100 is complete control) (rice (Oryza sativa); 250 g ai/ha): 0
